Experimental data published in US20240254118A1, “PRMT5 INHIBITORS AND USES THEREOF” (Gilead Sciences, Inc., priority 2022, published 2024).

tested on: SDMA signal (PRMT5 inhibition) in HCT116 MTAP-deleted cells; experiment: Symmetric di-methyl arginine image-based high content screen assay (SDMA assay), HCT116 MTAP-deleted; format: cell-based; conditions: Homo sapiens, HCT-116, 72 h; SDMA assay, 3 days of treatment; cell line not given, taken as HCT116 MTAP-deleted; read-out: EC50 (SDMA assay)
Description: Symmetric di-methyl arginine image-based high content screen assay (SDMA assay) was performed in HCT116 WT and HCT116 MTAP-deleted cell lines to measure Symmetric Di-methyl Arginine (SDMA) signal reduction after selective PRMT5 inhibition in the MTAP-deleted cells.
Briefly, the same compound plates were generated as mentioned in the previous section of Cell viability assay on Day −1.
On Day 3, the cells were fixed by adding 45 μl of 8% neutralized formalin solution to each well using EL460 liquid dispenser 5 μl cassette and the cells were incubated for 30 minutes at room temperature. The formalin solution was washed off with […] phosphate buffered saline (dPBS), the 0.1% Triton X-100 solution in dPBS was used to permeabilize the cells for 15 minutes at room temperature. The triton solution was aspirated, 50 μl of Odyssey Blocking buffer+0.05% Tween20 was added and the plate was incubated at room temperature for 30 minutes.
The blocking solution was removed, a 20 μl of SDMA antibody (Cell Signaling Technology, Cat no. 13222) diluted 1:500 in Odyssey Blocking buffer+0.05% Tween20 was added and the plate was incubated at 4° C. overnight. Next day, the primary SDME antibody solution was washed from each well three times with 0.05% Tween20 in dPBS (PBST).
A 30 μl of the secondary antibody, a Goat anti-Rabbit Alexa Fluor Plus 488 (Invitrogen, Cat no. PIA32731) was diluted 1:500 in Odyssey Blocking buffer+0.05% Tween20 and the plate was incubated for 1.5 hours in dark at room temperature. The secondary antibody solution was removed, 30 μl of 5 mg/ml DAPI solution diluted 1:2000 in dPBS was added and the plate was incubated for 30 minutes in dark at room temperature. The DAPI solution was aspirated and the wells were washed six times with dPBS.
The SDMA signal and DAPI signal per cell were counted using a Cellomics CX7 LZR instrument reading under 488 and 405 nm laser, respectively. The SDMA signal was quantified by mean average intensity per cell from Alexa Fluor Plus 488 after the cell was defined with DAPI.

| SMILES | EC50 |
| --- | --- |
| C[C@H]1CN(N(Cc2ccc(C(F)(F)F)cn2)C(=O)c2ccc3nc(N)c4cnn(C)c4c3c2)C(=O)O1 (single isomer, unassigned) [Example 8] | < 0.001 µM |

same assay, conditions: SDMA assay; selectivity, taken as HCT116 WT versus MTAP-deleted

| SMILES | EC50 selectivity (SDMA assay) |
| --- | --- |
| C[C@H]1CN(N(Cc2ccc(C(F)(F)F)cn2)C(=O)c2ccc3nc(N)c4cnn(C)c4c3c2)C(=O)O1 (single isomer, unassigned) [Example 8] | 137 |

tested on: HCT116 MTAP-deleted cells; experiment: Cell viability assay (CellTiter-Glo, 7 days), HCT116 MTAP-deleted; conditions: Homo sapiens, HCT-116, 168 h

| SMILES | CC50 |
| --- | --- |
| C[C@H]1CN(N(Cc2ccc(C(F)(F)F)cn2)C(=O)c2ccc3nc(N)c4cnn(C)c4c3c2)C(=O)O1 (single isomer, unassigned) [Example 8] | < 0.1 µM |
| CC(=O)N(C)N(Cc1ccc(C#N)cc1C(F)(F)F)C(=O)c1ccc2nc(N)c3cnn(C)c3c2c1 [Example 407, N′-acetyl-4-amino-N-(4-cyano-2-(trifluoromethyl)benzyl)-N′,1-dimethyl-1H-pyrazolo[4,3-c]quinoline-8-carbohydrazide] | 0.1 to 1 µM |
| CC(=O)N(C)N(Cc1ccc(C#N)cc1OC(F)F)C(=O)c1ccc2nc(N)c3cnn(C)c3c2c1 [Example 408, N′-acetyl-4-amino-N-(4-cyano-2-(difluoromethoxy)benzyl)-N′,1-dimethyl-1H-pyrazolo[4,3-c]quinoline-8-carbohydrazide] | < 0.1 µM |
| Cc1nc(C(F)(F)F)ccc1CN(C(=O)c1ccc2nc(N)c3cnn(C)c3c2c1)N(C)C(=O)C1CC1 [Example 409, 4-amino-N′-(cyclopropanecarbonyl)-N′,1-dimethyl-N-((2-methyl-6-(trifluoromethyl)pyridin-3-yl)methyl)-1H-pyrazolo[4,3-c]quinoline-8-carbohydrazide] | < 0.1 µM |
| CC(=O)N(C)N(Cc1ccc(C(F)(F)F)cc1C)C(=O)c1ccc2nc(N)c3cnn(C)c3c2c1 [Example 410, N′-acetyl-4-amino-N′,1-dimethyl-N-(2-methyl-4-(trifluoromethyl)benzyl)-1H-pyrazolo[4,3-c]quinoline-8-carbohydrazide] | < 0.1 µM |
| CC(=O)N(C)N(Cc1c(F)cc2c(ccn2C)c1F)C(=O)c1ccc2nc(N)c3cnn(C)c3c2c1 [Example 411, N′-acetyl-4-amino-N-((4,6-difluoro-1-methyl-1H-indol-5-yl)methyl)-N′,1-dimethyl-1H-pyrazolo[4,3-c]quinoline-8-carbohydrazide] | < 0.1 µM |
| CC(=O)N(C)N(Cc1ccc2c(c1)c1ccccc1n2C)C(=O)c1ccc2nc(N)c3cnn(C)c3c2c1 [Example 412, N′-acetyl-4-amino-N′,1-dimethyl-N-((9-methyl-9H-carbazol-3-yl)methyl)-1H-pyrazolo[4,3-c]quinoline-8-carbohydrazide] | 0.1 to 1 µM |
| CC(=O)N(C)N(Cc1cc(F)c(F)c(F)c1)C(=O)c1ccc2nc(N)c3cnn(C)c3c2c1 [Example 414, N′-acetyl-4-amino-N′,1-dimethyl-N-(3,4,5-trifluorobenzyl)-1H-pyrazolo[4,3-c]quinoline-8-carbohydrazide] | 0.1 to 1 µM |
| CC(=O)N(C)N(Cc1ccn(-c2ccc(C(F)(F)F)cc2)n1)C(=O)c1ccc2nc(N)c3cnn(C)c3c2c1 [Example 417, N′-acetyl-4-amino-N′,1-dimethyl-N-((1-(4-(trifluoromethyl)phenyl)-1H-pyrazol-3-yl)methyl)-1H-pyrazolo[4,3-c]quinoline-8-carbohydrazide] | < 0.1 µM |
| CN(C(=O)C1CC1)N(Cc1ccc(C(F)(F)F)cn1)C(=O)c1cc2c(cn1)nc(N)c1cnn(C)c12 [Example 422, 4-amino-N′-(cyclopropanecarbonyl)-N′,1-dimethyl-N-((5-(trifluoromethyl)pyridin-2-yl)methyl)-1H-pyrazolo[4,3-c][1,7]naphthyridine-8-carbohydrazide] | 0.1 to 1 µM |
| CC(=O)N(C)N(Cc1nc2cc(F)c(F)cc2n1C)C(=O)c1ccc2nc(N)c3cnn(C)c3c2c1 [Example 424, N′-acetyl-4-amino-N-((5,6-difluoro-1-methyl-1H-benzo[d]imidazol-2-yl)methyl)-N′,1-dimethyl-1H-pyrazolo[4,3-c]quinoline-8-carbohydrazide] | < 0.1 µM |
| CC(=O)N(C)N(Cc1ccn(-c2ccc(F)cc2)n1)C(=O)c1cc2c(cc1F)nc(N)c1cnn(C)c12 [Example 425, N′-acetyl-4-amino-7-fluoro-N-((1-(4-fluorophenyl)-1H-pyrazol-3-yl)methyl)-N′,1-dimethyl-1H-pyrazolo[4,3-c]quinoline-8-carbohydrazide] | < 0.1 µM |
| CC(=O)N(C)N(Cc1nc2ccc(Cl)cc2n1C)C(=O)c1ccc2nc(N)c3cnn(C)c3c2c1 [Example 426, N′-acetyl-4-amino-N-((6-chloro-1-methyl-1H-benzo[d]imidazol-2-yl)methyl)-N′,1-dimethyl-1H-pyrazolo[4,3-c]quinoline-8-carbohydrazide] | < 0.1 µM |
| Cn1ncc2c(N)nc3cc(F)c(C(=O)N(Cc4ccc(C(F)(F)F)cn4)N4CCOC(C(F)(F)F)C4)cc3c21 (stereo not drawn) [Example 427, 4-amino-7-fluoro-1-methyl-N-(2-(trifluoromethyl)morpholino)-N-((5-(trifluoromethyl)pyridin-2-yl)methyl)-1H-pyrazolo[4,3-c]quinoline-8-carboxamide] | < 0.1 µM |
| Cn1ncc2c(N)nc3ccc(C(=O)N(Cc4ccc(C(F)(F)F)cn4)N4CCOC(C(F)(F)F)C4)cc3c21 (stereo not drawn) [Example 428, 4-amino-1-methyl-N-(2-(trifluoromethyl)morpholino)-N-((5-(trifluoromethyl)pyridin-2-yl)methyl)-1H-pyrazolo[4,3-c]quinoline-8-carboxamide] | 0.1 to 1 µM |
| CC(=O)N(C)N(Cc1nc(-c2ccccc2)cs1)C(=O)c1ccc2nc(N)c3cnn(C)c3c2c1 [Example 429, N′-acetyl-4-amino-N′,1-dimethyl-N-((4-phenylthiazol-2-yl)methyl)-1H-pyrazolo[4,3-c]quinoline-8-carbohydrazide] | < 0.1 µM |
| CC(=O)N(C)N(Cc1cnn(-c2ccc(C(F)(F)F)cc2)c1)C(=O)c1ccc2nc(N)c3cnn(C)c3c2c1 [Example 430, N′-acetyl-4-amino-N′,1-dimethyl-N-((1-(4-(trifluoromethyl)phenyl)-1H-pyrazol-4-yl)methyl)-1H-pyrazolo[4,3-c]quinoline-8-carbohydrazide] | 0.1 to 1 µM |
| CC(=O)N(C)N(Cc1nc2ccccc2n1C(F)F)C(=O)c1ccc2nc(N)c3cnn(C)c3c2c1 [Example 431, N′-acetyl-4-amino-N-((1-(difluoromethyl)-1H-benzo[d]imidazol-2-yl)methyl)-N′,1-dimethyl-1H-pyrazolo[4,3-c]quinoline-8-carbohydrazide] | 0.1 to 1 µM |
| CC(=O)N(C)N(Cc1cnc(-c2ccccc2)n1C)C(=O)c1ccc2nc(N)c3cnn(C)c3c2c1 [Example 433, N′-acetyl-4-amino-N′,1-dimethyl-N-((1-methyl-2-phenyl-1H-imidazol-5-yl)methyl)-1H-pyrazolo[4,3-c]quinoline-8-carbohydrazide] | < 0.1 µM |
| Cn1ncc2c(N)nc3ccc(C(=O)N(Cc4ccn(-c5ccccc5F)n4)NC(=O)C4CC4)cc3c21 [Example 434, 4-amino-N′-(cyclopropanecarbonyl)-N-((1-(2-fluorophenyl)-1H-pyrazol-3-yl)methyl)-1-methyl-1H-pyrazolo[4,3-c]quinoline-8-carbohydrazide] | < 0.1 µM |
| CC(=O)N(C)N(Cc1ccn(-c2cccc(F)c2)n1)C(=O)c1ccc2nc(N)c3cnn(C)c3c2c1 [Example 435, N′-acetyl-4-amino-N-((1-(3-fluorophenyl)-1H-pyrazol-3-yl)methyl)-N′,1-dimethyl-1H-pyrazolo[4,3-c]quinoline-8-carbohydrazide] | < 0.1 µM |
| CC(=O)N(C)N(Cc1ccn(-c2ccccc2F)n1)C(=O)c1ccc2nc(N)c3cnn(C)c3c2c1 [Example 436, N′-acetyl-4-amino-N-((1-(2-fluorophenyl)-1H-pyrazol-3-yl)methyl)-N′,1-dimethyl-1H-pyrazolo[4,3-c]quinoline-8-carbohydrazide] | < 0.1 µM |
| CC(=O)N(C)N(Cc1ccn(-c2ccc(F)cc2F)n1)C(=O)c1ccc2nc(N)c3cnn(C)c3c2c1 [Example 440, N′-acetyl-4-amino-N-((1-(2,4-difluorophenyl)-1H-pyrazol-3-yl)methyl)-N′,1-dimethyl-1H-pyrazolo[4,3-c]quinoline-8-carbohydrazide] | < 0.1 µM |
| CC(=O)N(C)N(Cc1ccn(-c2c(F)cccc2F)n1)C(=O)c1ccc2nc(N)c3cnn(C)c3c2c1 [Example 441, N′-acetyl-4-amino-N-((1-(2,6-difluorophenyl)-1H-pyrazol-3-yl)methyl)-N′,1-dimethyl-1H-pyrazolo[4,3-c]quinoline-8-carbohydrazide] | < 0.1 µM |
| CN(C(=O)C1CC1)N(Cc1ncc(C(F)(F)F)cc1Cl)C(=O)c1ccc2nc(N)c3cnn(C)c3c2c1 [Example 446, 4-amino-N-((3-chloro-5-(trifluoromethyl)pyridin-2-yl)methyl)-N′-(cyclopropanecarbonyl)-N′,1-dimethyl-1H-pyrazolo[4,3-c]quinoline-8-carbohydrazide] | < 0.1 µM |
